What all share (assay type): in vivo, SD rats
Settings in all cases: rat, in vivo

The test system of assay [1] is SOD. In words: SOD determination, cerebral ischemic reperfusion MCAO model. As to the method:
(§1) Rats were intraperitoneally injected with 10% chloral hydrate 350 mg/kg after anesthesia and opened up at the center of the neck in accordance with the Zea Longa modified method. The right common carotid artery was separated, and the right external carotid artery branches was ligated. A small opening was made at the distal end of the external carotid artery, and a previously prepared thread was inserted through the common carotid artery and the external carotid artery bifurcation into the internal carotid artery, till the anterior end of the middle cerebral artery, with an immersed depth of 18 to 19 mm. The thread was then secured, and the wound was sutured layer by layer. After the operation, the rats were placed in a clean incubator to wake up. […] The sham operation group, the ischemic reperfusion group, and the Example groups were prepared strictly according to the requirements of the cerebral ischemic reperfusion model, while in the sham operation group the thread was put only into the external carotid artery. The animals were allowed to eat and drink freely after waking up. After 2 h, the thread was pulled out to achieve reperfusion. The sham operation group, the ischemic reperfusion group, and the Example groups were administered intravenously the aqueous solution of the biphenyl derivatives in PEG400 at 40 mg/kg (40 mg/kg means that 40 mg of the test compound per kg of the body weight of rats) 30 min before reperfusion and 12 h after reperfusion, respectively. The sham operation group and the ischemic reperfusion group were injected with the same amount of blank PEG400 aqueous solution at the same time point.
(§2) 24 hours after reperfusion, 8 rats in each group were sacrificed by decapitation, the brain was removed, rinsed with PBS (pH 7.4) at −20° i for 20 min, evenly sliced (with a thickness of 2 mm), stained in a 2% TTC solution at 37°% in the dark for 30 min, fixed in 10% formalin for 24 h, and photographs were taken to analyze the infarct volume. A mixture of femoral arterial and venous blood was drawn from another 8 rats in each group under anesthesia, placed in a low temperature centrifuge at 4° C., centrifuged at 3500 r/min for 20 min, and the supernatant was stored in a refrigerator at −20° C. ready for SOD and MDA detection. After the blood was drawn, a perfusion needle was insert through the apex to the ascending aorta, and saline at 4° C. was rapid infused until the effluent became clear, followed by 4% paraformaldehyde phosphate buffer perfusion for fixation; the brain was removed by craniotomy, and brain tissues 2 mm in front of and behind the optic chiasma were taken and fixed, dehydrated, rendered transparent, impregnated in wax, and embedded. Brain continuous coronary tissue pathological sections were consecutively cut for later use. The remaining 8 rats in each group were sacrificed, brains were removed, the ischemic brain hemispheres were immediately taken on an ice tray, and 10% brain tissue homogenate was prepared for the detection of IL-1β and TNF-α.
(§3) SOD and MDA were determined strictly in accordance with instructions of the kit.

In assay [2] the test system is SOD. Nature of the assay: SOD determination, permanent cerebral ischemia model. On the procedure:
as §1, with “the permanent cerebral ischemia model” for “the ischemic reperfusion”, “up.” for “up. After 2 h, the thread was pulled out to achieve reperfusion.”, “before insertion of thread” for “before reperfusion”, “after embolism,” for “after reperfusion,”
as §2, with “the embolism,” for “reperfusion,”, “−20°i” for “−20° i”
as §3

Assay [3] has as its system MDA. In words: MDA determination, permanent cerebral ischemia model. On the procedure: as §1, with “the permanent cerebral ischemia model” for “the ischemic reperfusion”, “up.” for “up. After 2 h, the thread was pulled out to achieve reperfusion.”, “before insertion of thread” for “before reperfusion”, “after embolism,” for “after reperfusion,”
as §2, with “the embolism,” for “reperfusion,”, “−20°i” for “−20° i”
as §3

In assay [4] the test system is Fas. In words: Fas determination (immunohistochemical method), permanent cerebral ischemia model. On the procedure: as §1, with “the permanent cerebral ischemia model” for “the ischemic reperfusion”, “up.” for “up. After 2 h, the thread was pulled out to achieve reperfusion.”, “before insertion of thread” for “before reperfusion”, “after embolism,” for “after reperfusion,”
as §2, with “the embolism,” for “reperfusion,”, “−20°i” for “−20° i”
(§4) The immunohistochemical method was used for determination. Brain tissue paraffin sections were dewaxed into water, washed with 3% H2O2 to eliminate endogenous peroxidase activity, and rinsed with distilled water for 3 times. Sodium citrate buffer was used for antigen heat repairing, and blocking with calf serum was carried out at room temperature for 15 min; a rabbit anti-mouse Fas antibody was added dropwise, allowed to stand at 4°t overnight, biotinylated goat anti-rabbit IgG was added dropwise, and heated in a water bath at 37°a for 20 min. Washing with PBS for 5 min was continuously repeated 4 times, followed by staining with DAB and sufficient washing without counterstaining. The sections were then gradient dehydrated with alcohol, made transparent with toluene, sealed and fixed. Images were captured by a video camera under high-power optical microscope and inputted into the image analysis system for image analysis. […]

Assay [5] deals with MDA. Nature of the assay: MDA determination, cerebral ischemic reperfusion MCAO model. As to the method: as §1, §2, §3
The subject of assay [6] is Fas. Nature of the assay: Fas determination (immunohistochemical method), cerebral ischemic reperfusion MCAO model. On the procedure: as §1, §2, §4

Take `CC(C)c1cccc(C(C)C)c1O` [Propofol injection, propofol, reference compound]: the “SOD ACTIVITY (U/mL)” value in the assay with SOD [1] is 88.25 ± 2.19 U/mL; in the assay on SOD [2], 89.13 ± 3.82 U/mL. Further, the results for the “MDA CONTENT” value with MDA [3] and in the assay with MDA [5] were 6.10 ± 0.29 mmol/mL and 5.58 ± 0.48 mmol/mL, respectively. Besides, the “Fas average gray value” in the assay with Fas [4] stood at 140.51 ± 4.84. The “Fas average gray scale” value in the assay with Fas [6] amounted to 142.15 ± 5.71.

Values taken from patent publication US10329243B2, “Biphenyl derivative and uses thereof” (XI'AN LIBANG PHARMACEUTICAL CO., LTD, priority 2015, dated 2019).
